In patent US20180008587A1, “THIOHYDANTOIN ANDROGEN RECEPTOR ANTAGONISTS FOR THE TREATMENT OF CANCER” (Jaressen Pharmaceutica NV, priority 2016, published 2018):
Residue numbers refer to the chain shown, from its start. Like-named read-outs stand apart in the source and are kept apart here.

Tests used:
Type in all cases: cell-based
[1] = molecular target: T1, F876L mutant Androgen Receptor (AR-F876L) (Homo sapiens, UniProt P10275, F877L); experiment: LNCaP-AR-F876L AG reporter assay (ARE firefly luciferase, agonist mode); details: for Emax: read-out: LNCaP-AR-F876L AG MAX % Stim
T1 construct: expressed in transfected cells; host or cells: LNCaP (LNCaP F876L)
T1 sequence (P10275 1-920 F877L): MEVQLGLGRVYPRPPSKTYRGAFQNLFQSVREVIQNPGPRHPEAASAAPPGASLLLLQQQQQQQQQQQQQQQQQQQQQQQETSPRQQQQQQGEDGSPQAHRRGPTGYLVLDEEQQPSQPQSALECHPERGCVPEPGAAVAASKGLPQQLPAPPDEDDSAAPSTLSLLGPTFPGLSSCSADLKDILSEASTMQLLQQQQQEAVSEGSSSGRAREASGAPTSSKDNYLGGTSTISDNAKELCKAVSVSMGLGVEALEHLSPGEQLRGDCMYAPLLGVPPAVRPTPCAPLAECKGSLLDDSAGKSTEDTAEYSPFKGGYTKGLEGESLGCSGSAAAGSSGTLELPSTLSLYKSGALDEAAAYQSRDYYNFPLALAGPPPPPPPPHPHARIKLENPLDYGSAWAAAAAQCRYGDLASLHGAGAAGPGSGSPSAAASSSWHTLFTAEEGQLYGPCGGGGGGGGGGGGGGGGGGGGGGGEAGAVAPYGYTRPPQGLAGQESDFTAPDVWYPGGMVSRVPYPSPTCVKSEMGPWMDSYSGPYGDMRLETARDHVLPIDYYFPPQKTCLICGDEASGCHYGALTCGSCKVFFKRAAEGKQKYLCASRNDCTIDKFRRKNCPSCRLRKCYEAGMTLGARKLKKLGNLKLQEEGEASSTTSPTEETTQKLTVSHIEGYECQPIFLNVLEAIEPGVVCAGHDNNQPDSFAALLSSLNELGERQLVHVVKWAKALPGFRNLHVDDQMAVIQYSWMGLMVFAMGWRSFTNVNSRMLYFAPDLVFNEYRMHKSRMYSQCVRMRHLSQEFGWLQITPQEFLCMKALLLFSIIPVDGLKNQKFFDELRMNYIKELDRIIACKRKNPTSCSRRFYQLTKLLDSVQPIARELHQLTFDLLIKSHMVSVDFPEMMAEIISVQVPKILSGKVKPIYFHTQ
Procedure: (§1) A stable pooled-population cell line was generated using puromycin (Life Technologies) selection at 1:10,000 v/v. The protocol below was used for both cell lines and for testing of the compounds of Formula (I) of the present invention.
(§2) LNCaP cells were grown to about 80% confluence, media removed and cells rinsed in Hank's balanced salt solution prior to separation from the plate with 0.05% Trypsin EDTA. Cells were lifted and trypsin negated in complete CSS (charcoal stripped serum) culture media. […] Agonist challenge was at 400 pM for WT assay and 600 pM for F876L assay. Plates containing cells and compounds herein were incubated for a further 20-24 hours at 37° C., 5% CO2 before addition of 40 μL/well of Steady-Glo Luciferase Assay System Reagent (Promega# E2520). After 1 h, plates were read for luminescence on a BMG Pherastar.
(§3) EC/IC50 calculations were achieved utilizing calculated RLU data and data fitting macros. Data were fit using least-squares methods to the following formula: […]

[2] = molecular target: T2, wild-type Androgen Receptor (AR-wt) (Homo sapiens, UniProt P10275); experiment: LNCaP-AR-wt ANT reporter assay (ARE firefly luciferase, antagonist mode); details: for IC50: antagonist mode, 400 pM R-1881 challenge, −Log10(IC50 [Molar]), read-out: LNCaP-AR-wt ANT pIC50 (converted); for Emax: read-out: LNCaP-AR-wt ANT MAX % Inh
T2 construct: expressed in transfected cells; host or cells: LNCaP (LNCaP AR (cs))
T2 sequence (P10275 1-920): T1 sequence (P10275 1-920 F877L) with L877F
Procedure: as §1, §2, §3

[3] = molecular target: T2, wild-type Androgen Receptor (AR-wt); experiment: LNCaP-AR-wt AG reporter assay (ARE firefly luciferase, agonist mode); details: for Emax: read-out: LNCaP-AR-wt AG MAX % Stim
Procedure: as §1, §2, §3

[4] = molecular target: T1, F876L mutant Androgen Receptor (AR-F876L); experiment: LNCaP-AR-F876L ANT reporter assay (ARE firefly luciferase, antagonist mode); details: for Emax: read-out: LNCaP-AR-F876L ANT MAX % Inh; for IC50: read-out: LNCaP-AR-F876L ANT pIC50 (converted)
Procedure: as §1, §2, §3

[5] = agonist mode, −Log10(EC50 [Molar]), read-out: LNCaP-AR-F876L AG pEC50 (converted)
[6] = maximum % inhibition of R1881 control response over tested concentration range
[7] = agonist mode, −Log10(EC50 [Molar]), read-out: LNCaP-AR-wt AG pEC50 (converted)
[8] = maximum % stimulation (agonist response) over tested concentration range

Compound | IC50 [2] [nM] | IC50 [4] [nM] | EC50 [1, 5] [nM] | Emax [2, 6] [%] | EC50 [3, 7] [nM] | Emax [4, 6] [%] | Emax [1, 8] [%] | Emax [3, 8] [%] | EC50 [1] [nM] | Emax [1] [%] | Emax [2] [%] | EC50 [3] [nM] | Emax [3] [%] | Emax [4] [%]
N#Cc1ncc(N2C(=O)C3(CCC3)N(c3ccc(Oc4ccncn4)cc3)C2=S)cc1C(F)(F)F [Cpd 71, 5-[5-oxo-8-(4-pyrimidin-4-yloxyphenyl)-7-thioxo-6,8-diazaspiro[3.4]octan-6-yl]-3-(trifluoromethyl)pyridine-2-carbonitrile] | 214 | 251 | – | – | – | – | – | – | > 15100 | 0.9 | 98.8 | > 15100 | 0.5 | 97.5
N#Cc1ncc(N2C(=O)C3(CCC3)N(c3ccc(C(=O)NCCCc4ccccc4)c(F)c3)C2=S)cc1C(F)(F)F [Cpd 57, 4-[6-[6-cyano-5-(trifluoromethyl)-3-pyridyl]-5-oxo-7-thioxo-6,8-diazaspiro[3.4]octan-8-yl]-2-fluoro-N-(3-phenylpropyl)benzamide] | 324 | 479 | – | – | – | – | – | – | > 15100 | 0.5 | 99 | > 15100 | 0 | 95.5
N#Cc1ncc(N2C(=O)C3(CCC3)N(c3ccc(C(=O)NCCc4ccccn4)c(F)c3)C2=S)cc1C(F)(F)F [Cpd 15, 4-[6-[6-cyano-5-(trifluoromethyl)-3-pyridyl]-5-oxo-7-thioxo-6,8-diazaspiro[3.4]octan-8-yl]-2-fluoro-N-[2-(2-pyridyl)ethyl]benzamide] | 209 | 46.8 | > 15100 | 103 | > 15100 | 102 | 0 | -0.1 | – | – | – | – | – | –
N#Cc1ncc(N2C(=O)C3(CCC3)N(c3ccc(C(=O)NCCCN4CCCC4)c(F)c3)C2=S)cc1C(F)(F)F [Cpd 118, 4-[6-[6-cyano-5-(trifluoromethyl)-3-pyridyl]-5-oxo-7-thioxo-6,8-diazaspiro[3.4]octan-8-yl]-2-fluoro-N-(3-pyrrolidin-1-ylpropyl)benzamide] | 1100 | 158 | > 15100 | 101 | > 15100 | 99.4 | 3.9 | 0.4 | – | – | – | – | – | –
Cc1cc(N2C(=O)C3(CCC3)N(c3ccc(-c4ccco4)cc3)C2=S)cnc1C#N [Cpd 86, 5-[8-[4-(2-furyl)phenyl]-5-oxo-7-thioxo-6,8-diazaspiro[3.4]octan-6-yl]-3-methyl-pyridine-2-carbonitrile] | 257 | 209 | > 15100 | 91.7 | > 15100 | 93.3 | 1.3 | 0.6 | – | – | – | – | – | –
Cc1cc(N2C(=O)C3(CCC3)N(c3ccc(C(=O)NCc4cccs4)c(F)c3)C2=S)cnc1C#N [Cpd 33, 4-[6-(6-cyano-5-methyl-3-pyridyl)-5-oxo-7-thioxo-6,8-diazaspiro[3.4]octan-8-yl]-2-fluoro-N-(2-thienylmethyl)benzamide] | 1230 | 490 | > 15100 | 99.6 | > 15100 | 100 | 0.3 | 0.3 | – | – | – | – | – | –
N#Cc1ncc(N2C(=O)C3(CCC3)N(c3ccc4ccccc4c3)C2=S)cc1C(F)(F)F [Cpd 18, 5-[8-(2-naphthyl)-5-oxo-7-thioxo-6,8-diazaspiro[3.4]octan-6-yl]-3-(trifluoromethyl)pyridine-2-carbonitrile] | 204 | 191 | – | – | – | – | – | – | > 15100 | 0 | 101 | > 15100 | -0.2 | 101

Continued, in another order:

IC50 [2] [nM] | IC50 [4] [nM] | EC50 [1, 5] [nM] | Emax [2, 6] [%] | EC50 [3, 7] [nM] | Emax [4, 6] [%] | Emax [1, 8] [%] | Emax [3, 8] [%] | Compound | EC50 [1] [nM] | Emax [1] [%] | Emax [2] [%] | EC50 [3] [nM] | Emax [3] [%] | Emax [4] [%]
398 | 229 | > 15100 | 100 | > 15100 | 99 | – | – | N#Cc1ncc(N2C(=O)C3(CCC3)N(c3ccc(OC(F)(F)F)cc3)C2=S)cc1C(F)(F)F [Cpd 38, 5-[5-oxo-7-thioxo-8-[4-(trifluoromethoxy)phenyl]-6,8-diazaspiro[3.4]octan-6-yl]-3-(trifluoromethyl)pyridine-2-carbonitrile] | – | 0.3 | – | – | 1.2 | –
575 | 490 | > 15100 | 95.7 | > 15100 | 95.3 | 2.3 | 1.2 | N#Cc1ncc(N2C(=O)C3(CCC3)N(c3ccc(OCCN4CCNCC4)c(F)c3)C2=S)cc1C(F)(F)F [Cpd 105, 5-[8-[3-fluoro-4-(2-piperazin-1-ylethoxy)phenyl]-5-oxo-7-thioxo-6,8-diazaspiro[3.4]octan-6-yl]-3-(trifluoromethyl)pyridine-2-carbonitrile] | – | – | – | – | – | –
1000 | 525 | > 15100 | 98 | > 15100 | 99.7 | 0.2 | 1.5 | CNS(=O)(=O)c1ccc(N2C(=S)N(c3cnc(C#N)c(C(F)(F)F)c3)C(=O)C23CCC3)cc1 [Cpd 25, 4-[6-[6-cyano-5-(trifluoromethyl)-3-pyridyl]-5-oxo-7-thioxo-6,8-diazaspiro[3.4]octan-8-yl]-N-methyl-benzenesulfonamide] | – | – | – | – | – | –
912 | 676 | > 15100 | 100 | > 15100 | 99.6 | – | – | N#Cc1ncc(N2C(=O)C3(CCC3)N(c3cccc(OC(F)(F)F)c3)C2=S)cc1C(F)(F)F [Cpd 97, 5-[5-oxo-7-thioxo-8-[3-(trifluoromethoxy)phenyl]-6,8-diazaspiro[3.4]octan-6-yl]-3-(trifluoromethyl)pyridine-2-carbonitrile] | – | 1.6 | – | – | 0.7 | –
